Measured values: PubChem BioAssay (NCI)
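Where inhibition never reached the appropriate level, the endpoint shown equals the highest concentration tested. Otherwise, values were interpolated linearly from a five-concentration, 48-hour dose response in 96-well plates. Abbreviation: GI50, concentration required for 50% inhibition of growth. At the TGI there is no net growth.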

Columns and labels:
Assay in all cases: NCI anticancer screen, dose series, 48 h
ACHN renal = test system: ACHN renal
HCT-116 colon = test system: HCT-116 colon
HT29 colon = test system: HT29 colon
MALME-3M melanoma = test system: MALME-3M melanoma
OVCAR-3 ovarian = test system: OVCAR-3 ovarian
SF-539 CNS = test system: SF-539 CNS
SN12C renal = test system: SN12C renal
SNB-19 CNS = test system: SNB-19 CNS
SR leukemia = test system: SR leukemia
UACC-257 melanoma = test system: UACC-257 melanoma

Compound	GI50 (ACHN renal) [µM]	TGI (ACHN renal) [µM]	GI50 (HCT-116 colon) [µM]	TGI (HCT-116 colon) [µM]	GI50 (HT29 colon) [µM]	TGI (HT29 colon) [µM]	GI50 (MALME-3M melanoma) [µM]	TGI (MALME-3M melanoma) [µM]	GI50 (OVCAR-3 ovarian) [µM]	TGI (OVCAR-3 ovarian) [µM]	GI50 (SF-539 CNS) [µM]	TGI (SF-539 CNS) [µM]	GI50 (SN12C renal) [µM]	TGI (SN12C renal) [µM]	GI50 (SNB-19 CNS) [µM]	TGI (SNB-19 CNS) [µM]	GI50 (SR leukemia) [µM]	TGI (SR leukemia) [µM]	GI50 (UACC-257 melanoma) [µM]	TGI (UACC-257 melanoma) [µM]
C=C(C)[C@@H]1CC[C@]2(CN)CC[C@]3(C)[C@H](CC[C@@H]4[C@@]5(C)CCC(N)[C@@](C)(CO)[C@@H]5CC[C@]43C)[C@@H]12 (stereo not given in full)	1.86	3.29	1.61	3.05	1.59	3.12	1.86	3.38	1.96	3.57	1.79	3.26	1.74	3.24	1.87	3.34	1.53	3.63	1.77	3.24
CN1CCN(Cc2ccc(NC(=O)c3cccc(C#Cc4c(N)ncc5ccc(F)cc45)c3)cc2C(F)(F)F)CC1	0.509	1.1	0.816	1.61	0.391	1.87	0.569	1.35	0.853	1.8	0.548	1.19	0.663	1.44	0.916	1.65	1.02	2.71	0.969	2.11
CC(C)Cc1ccc(C(C)/C=C2\CCC(CN3CCCCC3)C2=O)cc1 (stereo not given)		19.9		12.7		15.9		31.1		11		11.4		4.44		19.6		8.23		26.4
CC(C)(C)C1CCC(=O)C(C(O)CC2CC(=O)N(c3ccccc3)C(=O)C2)C1 (stereo not given)		> 100		> 100		> 100		> 100		> 100		> 100		> 100		> 100		> 100		> 100
